Experimental data taken from US6630125B2, “18F-labeled choline analogs” (priority 2000, dated 2003).
Entries after “also recorded” stand apart in the source; their conditions may differ. Read-outs that look alike come from different tables or passages of the source.

How the values were obtained:
[1] = Stability of FCH in human whole blood; type: in vitro ADME; conditions: 2 hr, 37 C, blood of healthy human subjects (n=5)
Experimental: The stability of FCH in its prepared form was evaluated by monitoring the radiochemical purity using the HPLC system described above. […] After an incubation of 2 hr at 37 C, the plasma was separated, the plasma proteins precipitated by adding two volumes of methanol, and the supernatant was analyzed for intact FCH by cation-exchange HPLC. […] FCH was also found to be stable in a blood samples taken from healthy human subjects (n=5).

[2] = tested on: mice with PC-3 xenografts
Experimental: Body weight and tumor volume were measured weekly and tumor volume (mm3) was calculated using the formula S2×L/2, where S and L represent the small and large diameters of the tumor, respectively.
A prescribed duration of time was allowed before procurement of heart, liver, lung, blood, kidney, bone (femur), brain (whole), prostate gland, tumor, bladder, and skeletal muscle. The tissues were weighed, and counted for ^18F in a gamma counter, then dissolved in Solvable (Dupont, Boston Mass.) and counted for ^14C in a liquid scintillation counter. For the bladder, the percentage of the injected dose in the urine was determined. For all other tissues, radiotracer uptake was calculated as: […]

[3] = tested on: patients with breast cancer; experiment: PET imaging in patients with breast cancer; type: in vivo, human; conditions: person, metastatic breast cancer
Experimental: In breast cancer patients, whole-body PET scans were obtained, beginning at 10 min post-administration of FCH. In patients with brain tumors, PET scans of the brain were obtained, beginning at 5 min post-administration of FCH.
Thirteen patients with metastatic breast cancer and one patient with both primary and metastatic breast cancer were each imaged with both FCH-PET and FDG-PET within a period of less than one month.
A person had undergone re-excision of right breast intraductal carcinoma 4 yr prior, then right modified radical mastectomy 3 yr prior followed by tamoxifen chemotherapy. Six months prior to the PET scans, metastatic breast cancer was detected by palpation (right breast sternal mass) and CT (mediastinal and hilar adenopathies, mass in right anterior pelvis). Tamoxifen therapy was stopped. […] Uptake of FCH was also observed in the corresponding tumors: sternal mass (SUV=14.6), mediastinal and hilar adenopathies (SUVs˜8.5), pelvic mass (SUV=6.5). […] Smaller metastases were indicated on the FCH-PET scan in the right chest wall and left lung that were not seen on the FDG-PET scan. Concerning the anterior pelvic tumor, there was observed a homogenous distribution of FDG across the tumor in the FDG-PET scan, whereas the FCH was preferentially distributed on the periphery of the tumor.

yeast choline kinase = target: T1, yeast choline kinase (Saccharomyces cerevisiae, UniProt P20485); experiment: In vitro phosphorylation by yeast choline kinase; type: biochemical
T1 sequence (P20485 1-582): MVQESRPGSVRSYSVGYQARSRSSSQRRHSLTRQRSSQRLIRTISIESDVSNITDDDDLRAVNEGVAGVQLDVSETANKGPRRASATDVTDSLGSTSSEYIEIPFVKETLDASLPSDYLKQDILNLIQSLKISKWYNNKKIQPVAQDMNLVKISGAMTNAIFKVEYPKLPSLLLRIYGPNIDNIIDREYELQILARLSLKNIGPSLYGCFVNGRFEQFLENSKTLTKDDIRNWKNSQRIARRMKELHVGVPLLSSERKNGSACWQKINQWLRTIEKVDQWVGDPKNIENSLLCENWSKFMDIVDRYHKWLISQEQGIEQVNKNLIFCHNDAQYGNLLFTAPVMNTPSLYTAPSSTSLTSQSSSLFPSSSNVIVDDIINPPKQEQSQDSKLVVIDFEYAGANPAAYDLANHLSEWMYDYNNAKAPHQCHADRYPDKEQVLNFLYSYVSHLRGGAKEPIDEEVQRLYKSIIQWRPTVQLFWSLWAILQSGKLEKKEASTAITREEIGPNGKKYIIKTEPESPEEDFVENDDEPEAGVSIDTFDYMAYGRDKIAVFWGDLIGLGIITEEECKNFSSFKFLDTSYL
Experimental: The test tube was gently agitated throughout the incubation period. The reaction was stopped by placing the tube in a boiling water bath for 2 min. To serve as controls, some samples were placed directly in the boiling water bath after addition of all substrates. […] The percentage of radioactivity converted to the phosphorylated form was calculated.

In the case of `C[N+](C)(CF)CCO.[Cl-]` [FCH, dimethylfluoromethyl-2-hydroxyethylammonium chloride], the “stability in whole blood (HPLC)” value [1] is reported as “completely intact”, the “Uptake in Blood” value ([2]; 10 min) is reported as 2.7 ± 0.9 % dose kg/100 g and the “Uptake in Brain” value ([2]; 10 min) is reported as 0.8 ± 0.3 % dose kg/100 g. For the same compound, the “Uptake in Heart” value ([2]; 10 min) was 15.5 ± 5.9 % dose kg/100 g, the “Uptake in Kidney” value ([2]; 10 min) was 127.7 ± 27.6 % dose kg/100 g and the “Uptake in Liver” value ([2]; 10 min) was 50.7 ± 15.3 % dose kg/100 g. For the same compound, the “Uptake in Lung” value ([2]; 10 min) was 18.0 ± 5.3 % dose kg/100 g, the “Uptake in Prostate” value ([2]; 10 min) was 6.6 ± 2.2 % dose kg/100 g and the “Uptake in Skeletal Muscle” value ([2]; 10 min) was 4.4 ± 1.8 % dose kg/100 g. For the same compound, the “Uptake in Tumor” value ([2]; 10 min) was 3.6 ± 0.6 % dose kg/100 g, the “Uptake in Blood” value ([2]; 30 min) was 3.3 ± 0.2 % dose kg/100 g and the “Uptake in Brain” value ([2]; 30 min) was 1.0 ± 0.2 % dose kg/100 g. For the same compound, the “Uptake in Heart” value ([2]; 30 min) was 13.2 ± 2.6 % dose kg/100 g, the “Uptake in Kidney” value ([2]; 30 min) was 116 ± 17 % dose kg/100 g and the “Uptake in Liver” value ([2]; 30 min) was 56.7 ± 13.2 % dose kg/100 g. The “Uptake in Lung” value ([2]; 30 min) was 17.1 ± 1.4 % dose kg/100 g, the “Uptake in Prostate” value ([2]; 30 min) was 7.1 ± 2.1 % dose kg/100 g and the “Uptake in Skeletal Muscle” value ([2]; 30 min) was 1.1 ± 1.0 % dose kg/100 g. For the same compound, the “Uptake in Tumor” value ([2]; 30 min) was 7.1 ± 2.1 % dose kg/100 g, the “Uptake in Blood” value ([2]; 60 min) was 1.5 ± 0.6 % dose kg/100 g and the “Uptake in Brain” value ([2]; 60 min) was 0.8 ± 0.1 % dose kg/100 g. For the same compound, the “Uptake in Heart” value ([2]; 60 min) was 12.7 ± 3.2 % dose kg/100 g, the “Uptake in Kidney” value ([2]; 60 min) was 94.3 ± 31.0 % dose kg/100 g and the “Uptake in Liver” value ([2]; 60 min) was 58.4 ± 40.6 % dose kg/100 g. For the same compound, the “Uptake in Lung” value ([2]; 60 min) was 21 ± 4.4 % dose kg/100 g, the “Uptake in Prostate” value ([2]; 60 min) was 7.1 ± 3.0 % dose kg/100 g and the “Uptake in Skeletal Muscle” value ([2]; 60 min) was 4.1 ± 0.6 % dose kg/100 g. The “Uptake in Tumor” value ([2]; 60 min) was 7.9 ± 5.0 % dose kg/100 g, the tumor uptake ([2]; PC-3 xenograft) was ~0.07 % dose kg/g and the “injected dose in the urinary bladder” value ([2]; at 30 min) was 10%. For the same compound, the “tumor:blood ratio” value ([2]; at 60 min) was 5.3±2.4, the “liver uptake compared with CH” value ([2]; mouse, in vivo) was “lower” and the “uptake by normal brain compared with other tracers” value ([2]; mouse, in vivo) was “one tenth that for FDG; also recorded: one half that of CH”. The “SUV of pelvic tumor / pelvic mass” value [3] was 6.5, the “SUV of sternal mass” value [3] was 14.6 and the “SUVs of mediastinal and hilar adenopathies” value [3] was ~8.5. For the same compound, the “phosphorylation rate compared with CH” value (yeast choline kinase; 1 μM choline) was “equivalent to CH”, the In vitro phosphorylation (yeast choline kinase; 1 μM choline, 25 mU/ml yeast choline kinase, 23° C., 10 min, n = 5) was 62.0 ± 8.8% and the IC50 (yeast choline kinase; choline 1-10,000 μM, 25 mU/ml choline kinase, 10 min, 23 C, read-out: apparent IC50 for inhibition of phosphorylation of radiotracer by choline) was ~400 µM.
